Reference: the supplement of paper PMC10307832

How the values were obtained:
Test in all cases: relative viability (nuclei count vs DMSO), 5 days (fraction); higher = more cells survive
IPA-3 + Bortezomib = compound: C1=CC=C2C(=C1)C=CC(=C2SSC3=C(C=CC4=CC=CC=C43)O)O [IPA-3] + CC(C)C[C@H](NC(=O)[C@H](Cc1ccccc1)NC(=O)c1cnccn1)B(O)O [Bortezomib] (partner 0.002 µM)
Outline: (§1)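 Five library-drug doses in √10 steps were combined with a fixed anchor-drug dose, or a single drug was given alone, by pin tool to lung cancer cell lines in 1536-well plates the day after seeding. Nuclei were stained and counted after 5 days. Relative viability is the nuclei count in treated wells over that in vehicle wells, taken as the median of duplicate plates.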

Doramapimod + Pemetrexed = compound: Cc1ccc(-n2nc(C(C)(C)C)cc2NC(=O)Nc2ccc(OCCN3CCOCC3)c3ccccc23)cc1 [Doramapimod] + Nc1nc2[nH]cc(CCc3ccc(C(=O)N[C@@H](CCC(=O)O)C(=O)O)cc3)c2c(=O)[nH]1 [Pemetrexed] (partner 0.2 µM)
Outline: as §1

RAF265 + Navitoclax = compound: Cn1c(Nc2ccc(C(F)(F)F)cc2)nc2cc(Oc3ccnc(-c4ncc(C(F)(F)F)[nH]4)c3)ccc21 [RAF265] + CC1(C)CCC(c2ccc(Cl)cc2)=C(CN2CCN(c3ccc(C(=O)NS(=O)(=O)c4ccc(N[C@H](CCN5CCOCC5)CSc5ccccc5)c(S(=O)(=O)C(F)(F)F)c4)cc3)CC2)C1 [Navitoclax] (partner 0.5 µM)
Outline: as §1

Doramapimod + Lapatinib = compound: Cc1ccc(-n2nc(C(C)(C)C)cc2NC(=O)Nc2ccc(OCCN3CCOCC3)c3ccccc23)cc1 [Doramapimod] + CS(=O)(=O)CCNCc1ccc(-c2ccc3ncnc(Nc4ccc(OCc5cccc(F)c5)c(Cl)c4)c3c2)o1 [Lapatinib] (partner 2 µM)
Outline: as §1

UMC-11
relative viability (IPA-3 + Bortezomib; first compound 0.2 µM): 0.923 | relative viability (IPA-3 + Bortezomib; first compound 0.6325 µM): 0.767 | relative viability (IPA-3 + Bortezomib; first compound 2 µM): 0.845 | relative viability (IPA-3 + Bortezomib; first compound 6.325 µM): 0.726 | relative viability (IPA-3 + Bortezomib; first compound 20 µM): 0.986 | relative viability (Doramapimod + Pemetrexed; first compound 0.02 µM): 0.711 | relative viability (Doramapimod + Pemetrexed; first compound 0.06325 µM): 0.739 | relative viability (Doramapimod + Pemetrexed; first compound 0.2 µM): 0.75 | relative viability (Doramapimod + Pemetrexed; first compound 0.6325 µM): 0.708 | relative viability (Doramapimod + Pemetrexed; first compound 2 µM): 0.743 | relative viability (RAF265 + Navitoclax; first compound 0.01 µM): 0.316 | relative viability (RAF265 + Navitoclax; first compound 0.03162 µM): 0.326 | relative viability (RAF265 + Navitoclax; first compound 0.1 µM): 0.299 | relative viability (RAF265 + Navitoclax; first compound 0.3162 µM): 0.322 | relative viability (RAF265 + Navitoclax; first compound 1 µM): 0.327 | relative viability (Doramapimod + Lapatinib; first compound 0.02 µM): 1.09 | relative viability (Doramapimod + Lapatinib; first compound 0.06325 µM): 0.957 | relative viability (Doramapimod + Lapatinib; first compound 0.2 µM): 0.901 | relative viability (Doramapimod + Lapatinib; first compound 0.6325 µM): 0.743 | relative viability (Doramapimod + Lapatinib; first compound 2 µM): 0.654
